Assay results reported in the OPERA property sets (Mansouri et al. 2018).

Which logP does the source give for `c1ccc2c(N3CCNCC3)nsc2c1` here?
The logP was 2.14.

Which logP does the source give for `COc1ccccc1N1CCNCC1` here?
The logP was 1.67.

Which logP does the source give for `c1ccc(N2CCNCC2)cc1` here?
Its logP is 1.1.

Which logP does the source give for `c1cnc(N2CCNCC2)nc1` here?
The logP was 0.49.

For `c1csc(N2CCNCC2)n1`, which logP is on record?
The logP was 0.61.

Which logP does the source give for `c1ccc(N2CCNCC2)nc1` here?
Its logP is 0.74.

Which logP does the source give for `c1ccc2nc(N3CCNCC3)ccc2c1` here?
The logP was 2.04.

Which logP does the source give for `Clc1cccc(N2CCNCC2)c1` here?
Its logP is 2.11.

Which logP does the source give for `Fc1ccnc(N2CCNCC2)n1` here?
Its logP is 0.97.

With `FC(F)(F)c1cccc(N2CCNCC2)c1` as the compound, how does the logP read?
Its logP is 2.43.

Which logP does the source give for `Fc1ccc(N2CCNCC2)cc1` here?
Its logP is 1.28.

For `Cc1ccccc1N1CCNCC1`, which logP is on record?
Its logP is 2.14.

For `Clc1ccc(N2CCNCC2)cc1`, which logP is on record?
The logP was 2.01.

With `Clc1ccccc1N1CCNCC1` as the compound, how does the logP read?
Its logP is 2.13.
